Reference: patent US11498920B2, “4-(1H-imidazol-5-yl)-1H-pyrrolo[2, 3-b] pyridines for use in the treatment of leukaemias, lymphomas and solid tumors” (MASARYKOVA UNIVERZITA, priority 2018, dated 2022)

Experiments:
[1] = Pharmacokinetic study, oral dosing, plasma concentration by LC-MS/MS (Example II.5); type: in vivo; details: mouse, male Balb/c mice, oral 20 mg/kg as dihydrochloride in saline, free base quantified, below LLOQ designated zero; for concentration at 15 min: read-out: conc. at 15 min; for concentration at 30 min: read-out: conc. at 30 min; for concentration at 60 min: read-out: conc. at 60 min; for concentration at 120 min: read-out: conc. at 120 min; for concentration at 240 min: read-out: conc. at 240 min; for concentration at 600 min: read-out: conc. at 600 min
Procedure: Male Balb/c mice (10-12 weeks old, body weight 24.1 to 30.8 g and average body weight across all groups 26.8 g, SD=1.7 g) were used in this study. The animals were randomly assigned to the treatment groups before the pharmacokinetic study; all animals were fasted for 4 h before dosing. The time points indicated in Table 4 were set for this pharmacokinetic study. Each of the time point treatment group included 4 animals. There was also control group of 2 animals. The compounds were dosed orally as the corresponding dihydrochlorides dissolved in physiological saline (c=3-4 mg/mL) at the dose of 20 mg/kg.
Mice were injected IP with 2,2,2-tribromoethanol at the dose of 150 mg/kg prior to drawing the blood. Blood collection was performed from the orbital sinus in microtainers containing K2EDTA. Animals were sacrificed by cervical dislocation after the blood samples collection. All samples were immediately processed, flash-frozen and stored at −70° C. until subsequent analysis.
Plasma samples (50 μL) were mixed with 200 μL of internal standard solution. After mixing by pipetting and centrifuging for 4 min at 6,000 rpm, 0.5 μL of each supernatant was injected into LC-MS/MS system.
The analyzed compound (as a dihydrochloride salt) was dissolved in DMSO, and the resulting solution with concentration of 2 mg/mL was used for calibration standards preparation (stock solution). A series of calibration standards was prepared by consecutively dilution of stock compound solution with blank mouse plasma to a final concentration of 40 000, 20 000, 10 000, 5 000, 2 500, 1000, 500, 250, 100, 50, and 20 ng/mL. Standard plasma samples (50 μL) were mixed with 200 μL of internal standard. After mixing by pipetting and centrifuging for 4 min at 6,000 rpm, 0.5 μL of each supernatant was injected into LC-MS/MS system. Signal corresponding to the free base was analyzed and quantified (Table 4).
The regression analysis of the analyzed compound was performed by plotting the peak area ratio (y-axis) against the compound concentration in calibration standards (x-axis, ng/mL).
The concentrations of the analyzed compound in plasma samples below the lower limit of quantitation (LLOQ—5 ng/mL to 20 ng/mL) were designated as zero.

primary CLL cells = assay: Cytotoxicity, TMRE flow cytometry viability, primary CLL cells (Example II.1); type: cell-based; details: Homo sapiens, CLL cell, 6 hours, TMRE positive cells normalized to control, ratio to PF670462, <1 = higher cytotoxicity than PF670462, read-out: Viability of cells, Compound of formula I (100 μM), relative to PF670462 (100 μM), CLL primary cells
[2] = system: Maver-1 cells (mantle cell lymphoma); assay: Cytotoxicity, TMRE flow cytometry viability, Maver-1 cells (Example II.1); type: cell-based; details: Homo sapiens, Maver1, 24 hours, TMRE positive cells normalized to control, ratio to PF670462, <1 = higher cytotoxicity than PF670462, read-out: Viability of cells, Compound of formula I (100 μM), relative to PF670462 (100 μM), Maver-1 cells (mantle cell lymphoma)

Row | Compound | concentration at 15 min [1] | concentration at 30 min [1] | concentration at 60 min [1] | concentration at 120 min [1] | concentration at 240 min [1] | concentration at 600 min [1] | viability at 100 µM (primary CLL cells) | viability at 100 µM [2]
1 | Cn1nnc(Cn2cnc(-c3ccc(F)cc3)c2-c2ccnc3[nH]ccc23)n1 [Preparative Example 151] | 18900 nM | 7240 nM | 3980 nM | 770 nM | 410 nM | 0 nM | – | –
2 | CN(C)[C@H]1C[C@@H](n2cnc(-c3ccc(F)cc3)c2-c2ccnc3[nH]ccc23)C1 [Preparative Example 123, (1R,3s)-3-(4-(4-fluorophenyl)-5-(1H-pyrrolo[2,3-b]pyridin-4-yl)-1H-imidazol-1-yl)-N,N-dimethylcyclobutan-1-amine] | 1350 nM | 920 nM | 520 nM | 130 nM | 0 nM | 0 nM | 58% | 78%
3 | Fc1ccc(-c2ncn(Cc3nc[nH]n3)c2-c2ccnc3[nH]ccc23)cc1 [Preparative Example 154, 4-(1-((1H-1,2,4-triazol-3-yl)methyl)-4-(4-fluorophenyl)-1H-imidazol-5-yl)-1H-pyrrolo[2,3-b]pyridine] | 13900 nM | 8760 nM | 7860 nM | 2450 nM | 520 nM | 0 nM | – | –
4 | Cc1nnc(Cn2cnc(-c3ccc(F)cc3)c2-c2ccnc3[nH]ccc23)[nH]1 [Preparative Example 107, 4-(4-(4-fluorophenyl)-1-((5-methyl-4H-1,2,4-triazol-3-yl)methyl)-1H-imidazol-5-yl)-1H-pyrrolo[2,3-b]pyridine] | 4780 nM | 2420 nM | 2300 nM | 430 nM | 240 nM | 0 nM | – | –
5 | CN1CCC(Cn2cnc(-c3ccc(F)cc3)c2-c2ccnc3[nH]ccc23)CC1 [Preparative Example 102, 4-(4-(4-fluorophenyl)-1-((1-methylpiperidin-4-yl)methyl)-1H-imidazol-5-yl)-1H-pyrrolo[2,3-b]pyridine] | 620 nM | 720 nM | 400 nM | 530 nM | 480 nM | 0 nM | 68% | 69%
6 | Cn1ccc(Cn2cnc(-c3ccc(F)cc3)c2-c2ccnc3[nH]ccc23)n1 [Preparative Example 94] | 440 nM | 210 nM | 180 nM | 70 nM | 0 nM | 0 nM | – | 81%
7 | Cn1cnc(Cn2cnc(-c3ccc(F)cc3)c2-c2ccnc3[nH]ccc23)c1 [Preparative Example 92, 4-(4-(4-fluorophenyl)-1-((1-methyl-1H-imidazol-4-yl)methyl)-1H-imidazol-5-yl)-1H-pyrrolo[2,3-b]pyridine] | 9520 nM | 6630 nM | 4520 nM | 790 nM | 50 nM | 0 nM | – | 81%
8 | Fc1ccc(-c2ncn(Cc3cccnc3)c2-c2ccnc3[nH]ccc23)cc1 [Preparative Example 82, 4-(4-(4-fluorophenyl)-1-(pyridin-3-ylmethyl)-1H-imidazol-5-yl)-1H-pyrrolo[2,3-b]pyridine] | 1370 nM | 260 nM | 90 nM | 40 nM | 20 nM | 0 nM | 80% | –
9 | Cn1ccnc1Cn1cnc(-c2ccc(F)cc2)c1-c1ccnc2[nH]ccc12 [Preparative Example 122, 4-(4-(4-fluorophenyl)-1-((1-methyl-1H-imidazol-2-yl)methyl)-1H-imidazol-5-yl)-1H-pyrrolo[2,3-b]pyridine] | 2730 nM | 730 nM | 300 nM | 160 nM | 40 nM | 0 nM | – | –
10 | Fc1ccc(-c2ncn(Cc3cocn3)c2-c2ccnc3[nH]ccc23)cc1 [Preparative Example 103, 4-((4-(4-fluorophenyl)-5-(1H-pyrrolo[2,3-b]pyridin-4-yl)-1H-imidazol-1-yl)methyl)oxazole] | 2170 nM | 580 nM | 130 nM | 80 nM | 40 nM | 0 nM | – | –
11 | CN1CCC(F)(Cn2cnc(-c3ccc(F)cc3)c2-c2ccnc3[nH]ccc23)CC1 [Preparative Example 126, 4-(1-((4-fluoro-1-methylpiperidin-4-yl)methyl)-4-(4-fluorophenyl)-1H-imidazol-5-yl)-1H-pyrrolo[2,3-b]pyridine] | 2380 nM | 1830 nM | 840 nM | 760 nM | 380 nM | 0 nM | 64% | 71%
12 | Cn1cc(Cn2cnc(-c3ccc(F)cc3)c2-c2ccnc3[nH]ccc23)nn1 [Preparative Example 113, 4-(4-(4-fluorophenyl)-1-((1-methyl-1H-1,2,3-triazol-4-yl)methyl)-1H-imidazol-5-yl)-1H-pyrrolo[2,3-b]pyridine] | 8010 nM | 3530 nM | 1030 nM | 1120 nM | 250 nM | 0 nM | – | –
13 | CCOC(=O)c1nc(-c2ccc(F)cc2)c(-c2ccnc3[nH]ccc23)n1C1CCCCC1 [Preparative Example 163, ethyl 1-cyclohexyl-4-(4-fluorophenyl)-5-(1H-pyrrolo[2,3-b]pyridin-4-yl)-1H-imidazole-2-carboxylate] | – | – | – | – | – | – | 57% | 10%
